Measurements taken from PubChem BioAssay (NCI).
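Values below derive from 48-hour exposures of cells grown in 96-well plates, with endpoints linearly interpolated between the two concentrations bracketing the appropriate inhibition level. GI50: concentration for 50% inhibition of growth. TGI denotes the concentration required for complete inhibition of growth.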

What was measured:
Experiment in all cases: growth of human tumour cells (NCI), 48 h
SNB-75 CNS = system: SNB-75 CNS
KM12 colon = system: KM12 colon
M14 melanoma = system: M14 melanoma
OVCAR-5 ovarian = system: OVCAR-5 ovarian
MALME-3M melanoma = system: MALME-3M melanoma
SK-MEL-2 melanoma = system: SK-MEL-2 melanoma
MDA-MB-435 = system: MDA-MB-435
NCI/ADR-RES ovarian = system: NCI/ADR-RES ovarian
U251 CNS = system: U251 CNS
CCRF-CEM leukemia = system: CCRF-CEM leukemia

Compound	TGI (SNB-75 CNS) [µM]	TGI (KM12 colon) [µM]	TGI (M14 melanoma) [µM]	TGI (OVCAR-5 ovarian) [µM]	TGI (MALME-3M melanoma) [µM]	TGI (SK-MEL-2 melanoma) [µM]	TGI (MDA-MB-435) [µM]	TGI (NCI/ADR-RES ovarian) [µM]	TGI (U251 CNS) [µM]	TGI (CCRF-CEM leukemia) [µM]	GI50 (MDA-MB-435) [µM]
N#Cc1c(/C=C/c2ccccc2)c2c([nH]c1=S)CCCCC2	> 100	> 100	> 100	> 100	> 100	> 100	> 100	> 100	> 100	> 100	
Cc1nc(N)c(N2CCN(S(=O)(=O)N(Cc3ccccc3)Cc3ccccc3)CC2)c(=O)[nH]1	28.6	> 100	> 100	73.5	56.6	> 100	88.8	> 100	36.8	> 100	
COc1cc2c3c(n(C)c(=O)c2cc1OC)-c1cc2c(cc1/C3=C\CCCCl)OCO2	32.2	70.1	> 100	> 100	> 100	98.9	> 100	> 100	> 100	> 100	> 100
Cc1cc2nc3c(C#N)c(C)c(CCCl)c(Cl)n3c2cc1C	4.63	14.4	6.16	5.86	9.28	3.99	4.92	21.5	> 60.9	7.38	
O=C(CSc1nc2ccc(I)cc2c(=O)n1Cc1ccccc1)Nc1ccccc1	12.2	> 100	> 100	> 100	43.8	43.3	> 100	93.2	48.8	> 100	
Cc1ccc(/C=c2\c(=O)[nH]c3nc4ccccc4c(=O)n23)cc1	75.6	> 100	> 100	> 100	> 100	> 100	60.5	> 100	38	> 100	
C=C1c2c(n(S(=O)(=O)c3ccccc3)c3ccccc23)[C@@]2(C(=O)OC)CC3C=CC2N1C3	> 100	> 100	> 100	> 100	> 100	> 100	> 100	> 100	> 100	> 100	
NC(=Nc1ccccc1)N/N=C/c1c[nH]c2ccccc12	5.56	5.28	1.53	15	3.74	4.95	0.0649	0.455	2.61	41	
Cc1cc(N(CCC#N)CCC#N)ccc1/C(N=Nc1ccc(C(=O)O)cc1)=N\NC(=O)c1ccccc1	> 100	> 100	> 100	> 100	> 100	> 100	> 100	> 100	> 100	> 100	
O=[N+]([O-])c1c(O)c2nonc2c2nn(-c3ccccc3)nc12	> 100	> 100	> 100	> 100	> 100	> 100	> 100	> 100	> 100	> 100	
COC(=O)NC(Cc1ccccc1)NC(=O)OC(C)(C)C (stereo unspecified)	> 100	> 100	> 100	> 100	> 100	> 100	> 100	> 100	> 100	> 100	
CC1(C)C2CC3C(C)(C2)C31c1cc(Cl)ccc1N (stereo unspecified)	24.3	28.5	24.8	29.4	21.3	29.4	25.1	29.5	28.5	33.4	
CC1(C)CCCCCC(O)C(O)CCC(C)(C)C1=O (stereo unspecified)	> 100	> 100	> 100	> 100	> 100	> 100	> 100	> 100	> 100	> 100	
COc1ccc(NC(=O)CSC(=O)c2ccccc2)c(SCCSSCCSc2cc(OC)ccc2NC(=O)CSC(=O)c2ccccc2)c1	> 100	> 100	> 100	> 100	> 100	> 100	> 100	> 100	> 100	> 100	
[N-]=[N+]=C(C(=O)CN1CCCC1=O)S(=O)(=O)c1ccccc1	> 100	> 100	> 100	> 100	> 100	> 100	> 100	> 100	> 100	> 100	
CCCCCCCCCCCC(=O)N(CCCCCCCCC)CC(O)C(O)C(OC1OC(CO)C(O)C(O)C1O)C(O)CO (stereo unspecified)	34.3	31.2	36.9	49.3	37.7	43.9	32	38.7	35.5	41	
COc1cc2nc(-c3cccs3)nc(Nc3ccccc3C(=O)NN)c2cc1OC	> 100	> 100	> 100	> 100	> 100	> 100	> 100	> 100	> 100	> 100	
CCOP(=O)(OCC)/C(=C/n1c(=S)[nH]c2ccccc21)C(=O)OC	> 100	> 100	> 100	> 100	> 100	> 100	> 100	> 100	> 100	> 100	
O=C(O)C(Cc1ccccc1)Cc1ccccc1	> 100	> 100	> 100	> 100	> 100	> 100	> 100	> 100	> 100	> 100	
